# According to patent US20220142958A1, “MEDICINAL COMPOSITION HAVING EXCELLENT STABILITY” (EA Pharma Co., Ltd., priority 2019, published 2022):
# What was measured:
# serum iPTH concentration = experiment: Serum iPTH concentration in bilaterally nephrectomized rats after single intravenous administration; assay type: in vivo, rat
# Text: After quarantine and acclimatization periods of 6 days, fifty-one rats (Crl: CD (SD), male) aged 7 weeks were fed a 100% sucrose diet ad libitum from four days before the surgery. On the day of the surgery, skin incisions were made on the back at the sites of the right and left kidneys under isoflurane anesthesia and the renal capsules were removed to ligate the renal arteries and veins and the ureters using threads before removing the right and left kidneys. A penicillin solution was given upon suturing, and 5 mL of physiological saline was intraperitoneally administered before returning the rats into the breeding cages.
# On the day of administering the test substance, for example, a day after the bilaterally nephrectomy, approximately 100 μL of blood was collected from the tail vein without anesthesia using a capillary tube, which was centrifuged in a high speed refrigerated microcentrifuge (10,000 rpm, 5 min, 4° C.) to separate the serum. Thereafter, the serum Ca concentration was measured with a dri-chemanalyzer (model number: FUJI DRI-CHEM 7000, manufacturer: FUJI FILM Medical Co., Ltd.) to select individuals with a serum Ca concentration of 8.0 mg/dL or more and less than 14.0 mg/dL.
# On a day after the bilaterally nephrectomy, the given doses were calculated based on the weight of the selected animals on that day. Group 1 was given a medium (physiological saline), Groups 2, 3 and 4 were given the Compound A1 solution (0.3, 3 and 30 mg/mL, respectively), and Groups 5, 6, 7 and 8 (5 rats per group) were given the comparative compound (0.3, 1, 3 and 10 mg/mL, respectively), each given a single dose of 1 ml/kg from the tail vein. Prior to the administration (0 hours), and 24 and 48 hours after the administration, approximately 300 μL of blood was collected without anesthesia from the tail vein using capillary tubes for obtaining the serum. The blood for obtaining the serum was left to stand at room temperature, and centrifuged in a high speed refrigerated microcentrifuge (10,000 rpm, 5 min, 4° C.) within a period of 30 minutes to 2 hours after the blood collection to collect the serum.
# Thereafter, the serum Ca was analyzed with COBAS analyzer (Model number: COBAS INTEGRA 400 plus, manufacturer: Roche Diagnostics K.K.), and the remaining serum was stored in an ultra-low freezer (temperature set to −80±15° C.) until the day of iPTH measurement. On the day of iPTH measurement, the serum was melted at room temperature for measurement.
# A 30 mg/ml Compound A1 solution ([…] of Compound A1 dissolved in 10 ml of physiological saline) was diluted with physiological saline to prepare 0.3 mg/ml and […] Compound A1 solutions.
# 149 mg of etelcalcetide (Ac-c(C) arrrar-NH2) TFA salt (WO 2011/014707 A) was prepared to have pH of 6 to 8 with 7 ml of physiological saline and a 0.5N aqueous NaOH solution, and physiological saline was further added thereto to make 10 ml. The prepared 10 mg/ml comparative compound solution was diluted with physiological saline to obtain 0.3 mg/ml and 1 mg/ml comparative compound solutions.
# serum iPTH = experiment: Estimation of EC50, PK and clinically effective dose in patients with renal failure; set-up: species or system human
# Text: EC50 value in patient with renal failure was estimated based on the calculated EC50 value in healthy adults and the results from the same analysis in normal rats and adenine-treated rat models (pathological rat models). […] Since the difference in the EC50 value between rats in normal state and pathological state is presumed to be caused by the changes in PK that are considered to greatly vary between normal state and pathological state, similar tendency is expected in human as well.
# The result from PK fitting, and the contribution rate of renal elimination of the drug (3.2%) calculated using PK-sim (registered trademark) were used to simulate PK prediction in the patients with renal failure. […] As a result, administration of a dose of 0.06 mg/man was estimated to maintain a concentration higher than 1.4 ng/mL for 72 hours (FIG. 2-8).
# [1] = Example 4A: residual ratio and reaction rate constant after storage at 60° C.; assay type: physicochemical; conditions: for Reaction rate constant at 60° C. / Residual ratio (%): 0.1 mg/mL
# Protocol: Compound A1 was dissolved in each of the buffer solutions shown in Table 10 so that a concentration was 0.1 mg/mL. Each of these solutions was dispensed into a glass vial and stored at 60° C. After the storage, a residual ratio was calculated according to a test method described below.
# Test method: In the solution after the storage, the residual ratio was analyzed according to a normal method using a liquid chromatography apparatus Prominence (manufactured by Shimadzu Corporation) and an ultraviolet absorptiometer (measurement wavelength: 254 nm, Prominence (manufactured by Shimadzu Corporation)). At this time, SUMIPAX ODS (3 mm×150 mm, 5 μm, manufactured by SCAS) was used as a column.
# The calculation for obtaining the residual ratio (%) of Compound A1 during each storage period is as follows.
# Residual ratio (%) of Compound A1 during each storage period=peak area of Compound A1 in sample solution/peak area of Compound A1 in standard solution×100
# Here, “Compound A1 in standard solution” refers to a solution obtained by dissolving Compound A1 in each of the buffer solutions shown in Table 10 so that a concentration was 0.1 mg/mL, and then storing the solution at 5° C. It was clear from the results of Example 1 that the solution of Compound A1 was stable when being stored at 5° C., and thus, the solution was used as the standard solution.
# The reaction rate constant at 60° C. was calculated using the obtained residual ratio.
smiles,measurement,setting,value
"Cc1c(Cl)cc(S(=O)(=O)[O-])cc1NC(=O)NC[C@H](N)C(=O)O.[Na+] [Compound A1, sodium 3-{[(2S)-2-amino-2-carboxyethyl]carbamoylamino}-5-chloro-4-methylbenzenesulfonate]",mean serum iPTH concentration,"serum iPTH concentration; 0.3 mg/kg single i.v., 24 hours after the administration",140 pg/mL
same,mean serum iPTH concentration,"serum iPTH concentration; 0.3 mg/kg single i.v., 48 hours after the administration",338 pg/mL
same,mean serum iPTH concentration,"serum iPTH concentration; 3 mg/kg single i.v., 24 hours after the administration",138 pg/mL
same,mean serum iPTH concentration,"serum iPTH concentration; 3 mg/kg single i.v., 48 hours after the administration",280 pg/mL
same,mean serum iPTH concentration,"serum iPTH concentration; 30 mg/kg single i.v., 24 hours after the administration",118 pg/mL
same,mean serum iPTH concentration,"serum iPTH concentration; 30 mg/kg single i.v., 48 hours after the administration",245 pg/mL
same,EC50,"serum iPTH concentration; Rattus norvegicus, iv, plasma concentration, rats, read-out: 50% effective concentration, EC50 value, for decreasing the serum iPTH concentration",0.075 µg/mL
same,lower limit value of the serum iPTH concentration (simulated),"serum iPTH concentration; logistic curve fitting, 48 hours after the administration vs given dose",203.0 pg/mL
same,decrease of serum iPTH and Ca concentrations,"serum iPTH concentration; renal failure rat models, during 48 hours after the administration, relation to dose",sufficiently decreased during the 48 hours after the administration but the decreases were gradual with respect to the increase in the dose
same,dose estimated to maintain a concentration higher than 1.4 ng/mL for 72 hours,serum iPTH; PK simulation,0.06 mg/man
same,EC50 (estimated),serum iPTH; scaling factor applied to human,> 0.0014 µg/mL
same,Reaction rate constant at 60° C.,[1]; pH 1.1,6.3 × 10^−4
same,Residual ratio (%),"[1]; pH 1.1, 60° C., 24 hours",97.8%
same,Residual ratio (%),"[1]; pH 1.1, 60° C., 113 hours",92.7%
same,Residual ratio (%),"[1]; pH 1.1, 60° C., 161 hours",90.2%
same,Reaction rate constant at 60° C.,[1]; pH 2.0,6.5 × 10^−4
same,Residual ratio (%),"[1]; pH 2.0, 60° C., 24 hours",98.1%
same,Residual ratio (%),"[1]; pH 2.0, 60° C., 113 hours",92.4%
same,Residual ratio (%),"[1]; pH 2.0, 60° C., 161 hours",90.1%
same,Reaction rate constant at 60° C.,[1]; pH 3.0,7.5 × 10^−4
same,Residual ratio (%),"[1]; pH 3.0, 60° C., 24 hours",98.3%
same,Residual ratio (%),"[1]; pH 3.0, 60° C., 113 hours",91.5%
same,Residual ratio (%),"[1]; pH 3.0, 60° C., 161 hours",88.9%
same,Reaction rate constant at 60° C.,[1]; pH 4.0,7.6 × 10^−4
same,Residual ratio (%),"[1]; pH 4.0, 60° C., 24 hours",98.1%
same,Residual ratio (%),"[1]; pH 4.0, 60° C., 113 hours",91.5%
same,Residual ratio (%),"[1]; pH 4.0, 60° C., 161 hours",88.5%
same,Reaction rate constant at 60° C.,[1]; pH 5.0,7.9 × 10^−4
same,Residual ratio (%),"[1]; pH 5.0, 60° C., 24 hours",98.0%
same,Residual ratio (%),"[1]; pH 5.0, 60° C., 113 hours",91.3%
same,Residual ratio (%),"[1]; pH 5.0, 60° C., 161 hours",88.0%
same,Reaction rate constant at 60° C.,[1]; pH 6.0,7.8 × 10^−4
same,Residual ratio (%),"[1]; pH 6.0, 60° C., 24 hours",98.1%
same,Residual ratio (%),"[1]; pH 6.0, 60° C., 113 hours",91.5%
same,Residual ratio (%),"[1]; pH 6.0, 60° C., 161 hours",88.3%
same,Reaction rate constant at 60° C.,[1]; pH 7.0,8.2 × 10^−4
same,Residual ratio (%),"[1]; pH 7.0, 60° C., 24 hours",98.2%
same,Residual ratio (%),"[1]; pH 7.0, 60° C., 113 hours",91.0%
same,Residual ratio (%),"[1]; pH 7.0, 60° C., 161 hours",87.8%
same,change of reaction rate constant at 60° C. when the pH of the formulation was changed,[1]; pH 1.1 to 7.0,not significantly changed
